Assay results as given in patent publication US12441733B2, “Substituted 2,4-dioxotetrahydropyrimidines as intermediates in the synthesis of bruton's tyrosine kinase inhibitors” (Novartis AG, priority 2018, dated 2025).

Test system: TMD8 cells
Assay: Resazurin cell viability (proliferation) assay in TMD8 DLBCL cells
Format: cell-based
Conditions: Homo sapiens, TMD8 cells (BTK dependent), 72 h, 50% growth inhibition vs vehicle, read-out: TMD8 Prol GI50
Outline: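 TMD8 cells were seeded at 1×10^4 per well and treated 3 h later with compound, in an 8-point 1:4 dilution series starting at 1 μM, or DMSO, for 72 h at 37° C. Resazurin was added at 13 μg/ml final for the last 2 h, and fluorescence was read at ex 530/em 600 nm. GI50 versus vehicle was derived by curve fitting from triplicates.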

Row | SMILES | GI50
1 | COc1ccc(C(=O)N2CCC3(CCN(CCc4ccc(-c5cc6c(-c7cc(F)cc(NC(=O)c8ccc(C(C)(C)O)cc8F)c7C)ncnc6[nH]5)cc4)CC3)CC2)cc1N1CCC(=O)NC1=O [Compound 31, N-(3-(6-(4-(2-(9-(3-(2,4-Dioxotetrahydropyrimidin-1(2H)-yl)-4-methoxybenzoyl)-3,9-diazaspiro[5.5]undecan-3-yl)ethyl)phenyl)-7H-pyrrolo[2,3-d]pyrimidin-4-yl)-5-fluoro-2-methylphenyl)-2-fluoro-4-(2-hydroxypropan-2-yl)benzamide] | 0.46 nM
2 | COc1ccc(C(=O)N2CCC(OC3CCN(CCc4ccc(-c5cc6c(-c7cc(F)cc(NC(=O)c8ccc(C(C)(C)O)cc8F)c7C)ncnc6[nH]5)cc4)CC3)CC2)cc1N1CCC(=O)NC1=O [Compound 34, N-(3-(6-(4-(2-(4-((1-(3-(2,4-Dioxotetrahydropyrimidin-1(2H)-yl)-4-methoxybenzoyl)piperidin-4-yl)oxyl)piperidin-1-yl)ethyl)phenyl)-7H-pyrrolo[2,3-d]pyrimidin-4-yl)-5-fluoro-2-methylphenyl)-2-fluoro-4-(2-hydroxypropan-2-yl)benzamide] | 1.7 nM
3 | COc1ccc(C(=O)NCCN2CCOC3(CCN(Cc4ccc(-c5cc6c(-c7cc(F)cc(NC(=O)c8ccc(C(C)(C)O)cc8F)c7C)ncnc6[nH]5)cc4)CC3)C2)cc1N1CCC(=O)NC1=O [Compound 39, N-(3-(6-(4-((4-(2-(3-(2,4-dioxotetrahydropyrimidin-1(2H)-yl)-4-methoxybenzamido)ethyl)-1-oxa-4,9-diazaspiro[5.5]undecan-9-yl)methyl)phenyl)-7H-pyrrolo[2,3-d]pyrimidin-4-yl)-5-fluoro-2-methylphenyl)-2-fluoro-4-(2-hydroxypropan-2-yl)benzamide] | 4.79 nM
4 | COc1ccc(C(=O)N2CCN(CCCCNCc3ccc(-c4cc5c(-c6cc(F)cc(NC(=O)c7ccc(C(C)(C)O)cc7F)c6C)ncnc5[nH]4)cc3)CC2)cc1N1CCC(=O)NC1=O [Compound 40, N-(3-(6-(4-(((4-(4-(3-(2,4-dioxotetrahydropyrimidin-1(2H)-yl)-4-methoxybenzoyl)piperazin-1-yl)butyl)amino)methyl)phenyl)-7H-pyrrolo[2,3-d]pyrimidin-4-yl)-5-fluoro-2-methylphenyl)-2-fluoro-4-(2-hydroxypropan-2-yl)benzamide] | 3.43 nM
5 | COc1ccc(C(=O)NCCN2CCC3(CC2)CCN(Cc2ccc(-c4cc5c(-c6cc(F)cc(NC(=O)c7ccc(C(C)(C)O)cc7F)c6C)ncnc5[nH]4)cc2)CC3)cc1N1CCC(=O)NC1=O [Compound 44, N-(3-(6-(4-((9-(2-(3-(2,4-dioxotetrahydropyrimidin-1(2H)-yl)-4-methoxybenzamido)ethyl)-3,9-diazaspiro[5.5]undecan-3-yl)methyl)phenyl)-7H-pyrrolo[2,3-d]pyrimidin-4-yl)-5-fluoro-2-methylphenyl)-2-fluoro-4-(2-hydroxypropan-2-yl)benzamide] | 3.74 nM
6 | Cc1c(NC(=O)c2ccc(C(C)(C)O)cc2F)cc(F)cc1-c1ncnc2[nH]c(-c3ccc(CCN4CCC5(CC4)CCN(C(=O)c4ccc(F)c(N6CCC(=O)NC6=O)c4)CC5)cc3)cc12 [Compound 47, N-(3-(6-(4-(2-(9-(3-(2,4-dioxotetrahydropyrimidin-1(2H)-yl)-4-fluorobenzoyl)-3,9-diazaspiro[5.5]undecan-3-yl)ethyl)phenyl)-7H-pyrrolo[2,3-d]pyrimidin-4-yl)-5-fluoro-2-methylphenyl)-2-fluoro-4-(2-hydroxypropan-2-yl)benzamide] | 0.53 nM
